Results: US7429607B2, “5-HT2B receptor antagonists” (Asterand UK Limited, priority 2002, dated 2008)

Tests used:
[1] = molecular target: T1, human cloned 5-HT2B receptors (Homo sapiens, UniProt P41595); test: Human cloned 5-HT2B receptor binding assay ([3H]LSD, CHO-K1 membranes); settings: displacement of [3H]LSD (1 nM), read-out: 5-HT2B pKi (converted)
T1 construct: expressed in transfected cells; host or cells: CHO-K1 cells
Experimental: The binding affinity of the compounds for human cloned 5-HT2B receptors was determined using the following assay.
CHO-K1 cells expressing cloned 5-HT2B receptor were maintained in Ultra-CHO medium containing 400 μg/ml of G418, 100 U/ml penicillin, 100 μg/ml streptomycin, 2.5 μg/ml fungizone and 1% foetal bovine serum, in 95/5% O2/CO2 at 37° C. The cells were harvested using 0.25% trypsin and were centrifuged at 800 rpm for 8 minutes. The cells were homogenised in 50 mM HEPES buffer containing 1 mM disodium EDTA and 1 mM PMSF at pH 7.4, using a Dounce homogeniser (20 strokes). The homogenate was centrifuged at 2280 rpm (1000 g) and 4° C. for 10 minutes, after which the supernatant was removed by decanting. The pellet was re-homogenised as above, and the resulting supernatant removed and combined with that already obtained. The supernatant solution was then centrifuged at 18300 rpm (40000 g) for 10 minutes at 4° C. using a Sorvall centrifuge. The supernatant was removed, and the pellet was re-suspended in 50 mM buffer at pH 7.4 using a Ultra-turrax T25 Polytron, before centrifugation again at 40000 g as above. This wash procedure was repeated, after which the membrane preparation was stored at a concentration of 1 mg/ml at −80° C. until use.
The membranes were thawed rapidly and diluted in assay buffer containing Tris-HCl (50 mM, pH 7.4), ascorbic acid (0.1%) and calcium chloride (4 mM). The membranes were homogenised to resuspend them, prior to adding 10 or 15 μg of membranes to assay wells containing [^3H]LSD (1 nM), assay buffer (50 mM Tris, 4 mM calcium chloride and 0.1% ascorbic acid) containing pargyline (10 μM), and the test compounds (1×10^−10 to 1×10^−4M). Non specific binding was determined in the presence of 100 μM 5-HT. After 30 minutes incubation at 37° C., the assay mixture was filtered through a combination of GF-C and GF-B filters, pre-soaked in 1% polyethyleneimine, using a Brandel cell harvester, and were washed three times using 50 mM Tris-HCl. Radioactivity retained on the filters was determined by liquid scintillation counting. For each test compound, the concentration that inhibited binding of [3H]LSD by 50% was determined using curve fitting software (Prism). Kd values (concentration of LSD required to occupy 50% of the receptor binding sites at equilibrium) determined from saturation binding studies were then used to calculate inhibition dissociation constants (Ki) using the following equation: […]
This approach follows that set out in Kenakin, T.P. Pharmacologic analysis of drug-receptor interaction. Raven Press, New York, 2nd Edition.

[2] = molecular target: T2, cloned human 5-HT2A receptor (Homo sapiens, UniProt P28223); test: Human 5-HT2A receptor binding assay ([3H]ketanserin, CHO-K1 membranes); settings: displacement of [3H]ketanserin (1 nM), read-out: 5-HT2A pKi (converted)
T2 construct: purchased Euroscreen; host or cells: CHO-K1 cells
T2 sequence (P28223 whole entry): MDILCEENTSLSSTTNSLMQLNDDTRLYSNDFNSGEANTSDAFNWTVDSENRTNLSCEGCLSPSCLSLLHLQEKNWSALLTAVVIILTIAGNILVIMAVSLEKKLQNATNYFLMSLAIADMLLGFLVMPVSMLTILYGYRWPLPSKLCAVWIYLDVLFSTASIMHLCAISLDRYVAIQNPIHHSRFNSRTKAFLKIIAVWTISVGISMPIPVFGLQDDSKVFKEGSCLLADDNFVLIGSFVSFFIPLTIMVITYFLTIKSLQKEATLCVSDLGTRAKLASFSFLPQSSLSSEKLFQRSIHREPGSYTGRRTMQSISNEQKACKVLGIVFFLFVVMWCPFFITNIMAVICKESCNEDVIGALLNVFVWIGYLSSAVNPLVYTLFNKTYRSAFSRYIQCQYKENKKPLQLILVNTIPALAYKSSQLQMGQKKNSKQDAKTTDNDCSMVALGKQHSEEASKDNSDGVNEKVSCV
Experimental: (§1) The binding affinity of ligands for human 5-HT2A and 5-HT2C receptors was determined using the following assay.
Membrane preparations from CHO-K1 cells expressing the cloned human 5-HT2A receptor were obtained (Euroscreen). The membranes were thawed rapidly and diluted in assay buffer containing Tris-HCl (50 mM, pH 7.7). The membranes were resuspended by homogenisation, prior to adding 15 μg of membranes to assay wells containing [3H] ketanserin (1 nM), assay buffer (50 mM Tris at pH 7.4) containing pargyline (10 μM), and test compounds (1×10^−10 to 1×10^−4M). Non specific binding was determined in the presence of 100 μM mianserin. After 15 minutes incubation at 37° C., the assay mixture was filtered through a combination of GF-C and GF-B filters, pre-soaked in 0.05% Brij, using a Brandel cell harvester, and were washed three times using ice cold Tris-HCl buffer (50 mM). Radioactivity retained on the filters was determined by liquid scintillation counting. For each test compound, the concentration that inhibited binding of [^3H]ketanserin by 50% was determined using curve fitting software (Prism). Kd values (concentration of ketanserin required to occupy 50% of the receptor binding sites at equlibrium) determined from saturation binding studies were then used to calculate inhibition dissociation constants (Ki) using the following equation: […]

[3] = molecular target: T3, cloned human 5-HT2C receptor (Homo sapiens, UniProt P28335); test: Human 5-HT2C receptor binding assay ([3H]mesulergine, CHO-K1 membranes); settings: displacement of [3H]mesulergine (1 nM), read-out: 5-HT2C pKi (converted)
T3 construct: purchased Euroscreen; host or cells: CHO-K1 cells
T3 sequence (P28335 33-458): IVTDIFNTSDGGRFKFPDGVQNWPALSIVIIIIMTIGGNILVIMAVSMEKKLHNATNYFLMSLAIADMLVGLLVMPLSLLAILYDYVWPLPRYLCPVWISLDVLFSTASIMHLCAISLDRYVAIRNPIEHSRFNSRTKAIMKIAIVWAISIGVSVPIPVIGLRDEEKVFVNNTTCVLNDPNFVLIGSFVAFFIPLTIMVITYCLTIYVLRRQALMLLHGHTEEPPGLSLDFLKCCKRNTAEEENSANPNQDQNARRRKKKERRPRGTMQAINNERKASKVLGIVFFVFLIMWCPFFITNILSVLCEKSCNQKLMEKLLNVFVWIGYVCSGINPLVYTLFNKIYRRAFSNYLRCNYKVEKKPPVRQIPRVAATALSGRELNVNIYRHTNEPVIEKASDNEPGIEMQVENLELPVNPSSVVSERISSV
Experimental: as §1
Membrane preparations from CHO-K1 cells expressing the cloned human 5-HT2C receptor were obtained (Euroscreen). The membranes were thawed rapidly and diluted in assay buffer containing Tris-HCl (50 mM, pH 7.7), ascorbic acid (0.1%) and pargyline (10 μM). The membranes were resuspended by homogenisation, prior to adding 6 μg of membranes to assay wells containing [^3H] mesulergine (1 nM), assay buffer (50 mM Tris at pH 7.7 and 0.1% ascorbic acid) containing pargyline (10 μM), and test compounds (1×10^−10 to 1×10^−4M). Non specific binding was determined in the presence of 100 μM mianserin. After 30 minutes incubation at 37° C., the assay mixture was filtered through a combination of GF-C and GF-B filters, pre-soaked in 1% bovine serum albumin, using a Brandel cell harvester, and were washed three times using ice cold Tris-HCl buffer (50 mM). Radioactivity retained on the filters was determined by liquid scintillation counting. For each test compound, the concentration that inhibited binding of [3H]mesulergine by 50% was determined using curve fitting software (Prism). Kd values (concentration of mesulergine required to occupy 50% of the receptor binding sites at equlibrium) determined from saturation binding studies were then used to calculate inhibition dissociation constants (Ki) using the following equation: […]

T1 sequence (P41595 whole entry): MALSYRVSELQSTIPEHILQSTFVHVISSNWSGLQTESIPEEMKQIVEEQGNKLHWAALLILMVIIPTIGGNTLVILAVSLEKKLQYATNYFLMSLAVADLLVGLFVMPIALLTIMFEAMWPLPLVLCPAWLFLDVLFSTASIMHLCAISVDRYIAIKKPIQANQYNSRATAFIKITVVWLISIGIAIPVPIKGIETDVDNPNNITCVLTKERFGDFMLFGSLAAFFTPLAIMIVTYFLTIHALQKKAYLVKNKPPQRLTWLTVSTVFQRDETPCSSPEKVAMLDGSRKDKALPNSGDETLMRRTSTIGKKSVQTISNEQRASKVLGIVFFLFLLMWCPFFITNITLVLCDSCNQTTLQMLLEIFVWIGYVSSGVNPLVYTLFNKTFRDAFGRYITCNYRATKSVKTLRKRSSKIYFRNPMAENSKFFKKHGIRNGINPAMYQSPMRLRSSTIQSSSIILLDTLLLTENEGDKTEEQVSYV

Compound	Ki [1] [nM]	Ki [2] [nM]	Ki [3] [nM]	melting point [°C]
NC(=O)c1ccc2cccc(-c3coc(N)n3)c2c1 [Compound 24, 8-(2-amino-oxazol-4-yl)-naphthalene-2-carboxylic acid amide]	< 10000	> 10000	> 10000	
CCOc1ccc2ccccc2c1-c1coc(N)n1 [Compound 10, 4-(2-ethoxy-naphthalen-1-yl)-oxazol-2-ylamine]	< 10	> 1000	> 1000	
Cc1c(-c2coc(N)n2)sc2ccccc12 [Compound 13, 4-(3-methyl-benzo[b]thiophen-2-yl)-oxazol-2-ylamine]	< 1000	> 10000	> 1000	
CC(=O)Nc1nc(-c2cccc3ccccc23)co1 [Compound 9, 2-acetylamino-4-(naphth-1-yl)oxazole]	< 1000	> 10000	> 1000	188 to 190
Nc1nc(-c2ccc3c(c2)OCCO3)co1 [Compound 14, 4-(2,3-dihydro-benzo[1,4]dioxin-6-yl)-oxazol-2-ylamine]	< 1000	> 10000	> 10000	
Nc1nc(-c2cccc3c(Br)cccc23)co1 [Compound 19, 4-(5-bromo-naphthalen-1-yl)-oxazol-2-ylamine]	< 10000	> 10000	> 1000	
COC(=O)COc1ccc2ccccc2c1-c1coc(N)n1 [Compound 23, [1-(2-amino-oxazol-4-yl)-naphthalen-2-yloxy]-acetic acid methyl ester]	< 1000		> 10000	
Nc1nc(-c2cccc3ccc(Br)cc23)co1 [Compound 5, 2-amino-4-(7′-bromonaphth-1-yl)oxazole]	< 100	> 1000	> 1000	189 to 190
Nc1nc(-c2ccc(F)c3ccccc23)co1 [Compound 4, 2-amino-4-(4′-fluoronaphth-1-yl)oxazole]	< 100	> 1000	> 1000	171 to 174
Nc1nc(CO)c(-c2cccc3ccccc23)o1 [Compound 29, (2-amino-5-naphthalen-1-yl-oxazol-4-yl)-methanol]	< 100		> 1000	
Nc1nc(-c2cccc3sccc23)co1 [Compound 15, 4-benzo[b]thiophen-4-yl-oxazol-2-ylamine]	< 1000	> 1000	> 1000	
Cc1oc(N)nc1-c1cccc2ccccc12 [Compound 30, 5-Methyl-4-naphthalen-1-yl-oxazol-2-ylamine]	< 100	> 10000		
N#Cc1cccc2c(-c3coc(N)n3)cccc12 [Compound 21, 4-(5-carbonitrile-naphthalen-1-yl)-oxazol-2-ylamine]	< 10000	> 10000	> 1000	
COc1ccc(-c2coc(N)n2)c2ccccc12 [Compound 11, 4-(4-methoxy-naphthalen-1-yl)-oxazol-2-ylamine]	< 100	> 10000	> 10000	
CN(C)c1nc(-c2cccc3ccccc23)co1 [Compound 8, 2-dimethylamino-4-(naphth-1-yl)oxazole]	< 1000	> 10000	> 10000	30 to 32
COc1c(-c2coc(N)n2)ccc2ccccc12 [Compound 18, 4-(1-methoxy-naphthalen-2-yl)-oxazol-2-ylamine]	< 1000	> 10000	> 10000	
Nc1nc(-c2c(OCc3ccccc3)ccc3ccccc23)co1 [Compound 12, 4-(2-benzyloxy-naphthalen-1-yl)-oxazol-2-ylamine]	< 1000			
N#Cc1ccc2cccc(-c3coc(N)n3)c2c1 [Compound 20, 4-(7-carbonitrile-naphthalen-1-yl)-oxazol-2-ylamine]	< 10000	> 10000	> 10000	
CC(=O)OCc1nc(N)oc1-c1cccc2ccccc12 [Compound 28, acetic acid 2-amino-5-naphthalen-1-yl-oxazol-4-ylmethyl ester]	< 100	> 10000		
COc1ccc2ccccc2c1-c1oc(N)nc1C [Compound 26, 5-(2-methoxy-naphthalen-1-yl)-4-methyl-oxazol-2-ylamine]	< 10	> 1000		
Nc1nc(-c2c(O)ccc3ccccc23)co1 [Compound 22, 1-(2-amino-oxazol-4-yl)-naphthalen-2-ol]	< 100	> 1000		
